System: human elastin promoter
Test: human elastin promoter activity by CAT assay in transgenic mouse fibroblast cultures exposed to hypoxanthine/xanthine oxidase
Assay type: cell-based
Details: 10,000 U/ml catalase added just prior to hypoxanthine and xanthine oxidase exposure
From the text: Fibroblasts derived from the skin of a homozygous line of transgenic mice expressing the 5.2-kb human elastin promoter, linked to a CAT reporter gene which enables measurement of elastin promoter activation, as previously described (Bernstein et al. J Invest Dermatol 105, 269-273, 1995; and Bernstein et al. Photochem Photobiol 64:369-74, 1996) were utilized. Although phenotypically normal, these mice express the human elastin promoter when assayed for CAT activity (Hsu-Wong et al. J. Biol. Chem. 269: 18072-18075, 1994; Bernstein et al. J Invest Dermatol 105, 269-273, 1995; and Bernstein et al. Photochem Photobiol 64:369-74, 1996). […]
DMEM with 10% FCS was removed, cells were rinsed in phosphate buffered saline (PBS), and DMEM was replaced without the addition of FCS. […] The optimum time span for incubation of cells with hypoxanthine/xanthine oxidase was determined by exposing cells to hypoxanthine/xanthine oxidase for 15, 30, 60, 90 and 120 minutes and determining CAT activity as outlined in Example 3. […]
To measure the expression of the human elastin promoter/CAT reporter gene construct in the skin of transgenic mice and in fibroblast cultures established from these animals, CAT activity was determined. […]

- effect on the hypoxanthine/xanthine oxidase-induced increase in elastin promoter activity: fully eliminated this increase
- human elastin promoter activity (CAT assay), fold of untreated controls (mean±sem) (90 minutes): 1.0±0.1 fold
Substance: catalase

— patent US6753146B1, “System and method for evaluating agents which prevent oxidative damage” (priority 1999, dated 2004)
